Results: ChEMBL document CHEMBL1201862, “PubChem BioAssay data set” (2004)
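Method: 48-hour compound exposure of cells in 96-well plates, five concentrations, linear interpolation of endpoints. GI50 = concentration required for 50% inhibition of growth.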 Activity calls are given as the source filed them. Cut-off read from the data, not from the text of the source: active = GI50 up to about 1.1 µM and inactive = higher.

Columns and labels:
Assay in all cases: NCI-60 cell line screen, 48 h
COLO 205 = system: COLO 205
LOX IMVI = system: LOX IMVI
SNB-75 = system: SNB-75
RXF 393 = system: RXF 393
A498 = system: A498
EKVX = system: EKVX
SF-539 = system: SF-539
NCI/ADR-RES = system: NCI/ADR-RES
UO-31 = system: UO-31
HOP-62 = system: HOP-62
NCI-H23 = system: NCI-H23
CAKI-1 = system: CAKI-1
SF-268 = system: SF-268
NCI-H522 = system: NCI-H522
MDA-MB-231 = system: MDA-MB-231
MDA-MB-435 = system: MDA-MB-435
SW-620 = system: SW-620
HOP-92 = system: HOP-92
UACC-62 = system: UACC-62
PC-3 = system: PC-3

Row | Structure (SMILES) | GI50 (COLO 205) | GI50 (LOX IMVI) | GI50 (SNB-75) | GI50 (RXF 393) | GI50 (A498) | GI50 (EKVX) | GI50 (SF-539) | GI50 (NCI/ADR-RES) | GI50 (UO-31) | GI50 (HOP-62) | GI50 (NCI-H23) | GI50 (CAKI-1) | GI50 (SF-268) | GI50 (NCI-H522) | GI50 (MDA-MB-231) | GI50 (MDA-MB-435) | GI50 (SW-620) | GI50 (HOP-92) | GI50 (UACC-62) | GI50 (PC-3)
1 | Cc1cnc(Cl)nc1C(C#N)c1nc2ccccc2n1C (stereo unspecified) | > 100 µM (inactive) | 34.1 µM (inactive) | 10.1 µM (inactive) | 58.9 µM (inactive) | > 100 µM (inactive) | 6.31 µM (inactive) | 31 µM (inactive) | 56.1 µM (inactive) | > 100 µM (inactive) | 55.7 µM (inactive) | 66.7 µM (inactive) | 95.3 µM (inactive) | 29.9 µM (inactive) | 15.1 µM (inactive) | > 100 µM (inactive) | > 100 µM (inactive) | > 100 µM (inactive) | > 100 µM (inactive) | – | –
2 | O=C(/C=C/c1c(O)ccc2ccccc12)c1ccccc1Cl | 17.8 µM (inactive) | 24.2 µM (inactive) | 25.3 µM (inactive) | 26.2 µM (inactive) | 82 µM (inactive) | 67.9 µM (inactive) | 26.5 µM (inactive) | – | 49.1 µM (inactive) | 76.6 µM (inactive) | 19.8 µM (inactive) | 81.5 µM (inactive) | 29.3 µM (inactive) | 26.7 µM (inactive) | – | – | 24.2 µM (inactive) | 23.2 µM (inactive) | 15.8 µM (inactive) | –
3 | Fc1ccc2c(c1)cc1ccc3cccc4ccc2c1c34 | > 100 µM (inactive) | > 100 µM (inactive) | > 100 µM (inactive) | > 100 µM (inactive) | > 100 µM (inactive) | 5.02 µM (inactive) | > 100 µM (inactive) | – | > 100 µM (inactive) | > 100 µM (inactive) | > 100 µM (inactive) | > 100 µM (inactive) | > 100 µM (inactive) | > 100 µM (inactive) | – | – | > 100 µM (inactive) | > 100 µM (inactive) | > 100 µM (inactive) | –
4 | CSC[S+]([O-])C[C@H](CO)NC(=O)/C=C/c1c(C)[nH]c(=O)[nH]c1=O (stereo partly specified) | 1.43 µM (inactive) | 1.11 µM (active) | 0.236 µM (active) | 0.804 µM (active) | 0.378 µM (active) | 1.87 µM (inactive) | 0.741 µM (active) | 1.27 µM (inactive) | 1.61 µM (inactive) | 1.15 µM (inactive) | 0.644 µM (active) | 1.65 µM (inactive) | 0.277 µM (active) | 0.731 µM (active) | – | – | 2.21 µM (inactive) | 0.257 µM (active) | 1.01 µM (active) | –
5 | C[N+](C)(C)CCOP(=O)([O-])OCCNC(=O)c1ccc2ccccc2c1 | > 100 µM (inactive) | > 100 µM (inactive) | > 100 µM (inactive) | > 100 µM (inactive) | – | > 100 µM (inactive) | > 100 µM (inactive) | 31.5 µM (inactive) | > 100 µM (inactive) | > 100 µM (inactive) | > 100 µM (inactive) | > 100 µM (inactive) | > 100 µM (inactive) | > 100 µM (inactive) | > 100 µM (inactive) | > 100 µM (inactive) | > 100 µM (inactive) | – | > 100 µM (inactive) | > 100 µM (inactive)
6 | CN(CC(=O)O)S(=O)(=O)c1ccc2ccccc2c1 | > 100 µM (inactive) | > 100 µM (inactive) | > 100 µM (inactive) | > 100 µM (inactive) | > 100 µM (inactive) | > 100 µM (inactive) | > 100 µM (inactive) | – | > 100 µM (inactive) | – | > 100 µM (inactive) | > 100 µM (inactive) | > 100 µM (inactive) | > 100 µM (inactive) | – | – | > 100 µM (inactive) | > 100 µM (inactive) | > 100 µM (inactive) | –
7 | CC(=O)Nc1ccccc1S(=O)(=O)c1ccccc1 | > 100 µM (inactive) | > 100 µM (inactive) | > 100 µM (inactive) | > 100 µM (inactive) | > 100 µM (inactive) | > 100 µM (inactive) | > 100 µM (inactive) | – | > 100 µM (inactive) | > 100 µM (inactive) | > 100 µM (inactive) | > 100 µM (inactive) | > 100 µM (inactive) | > 100 µM (inactive) | – | – | > 100 µM (inactive) | 43.9 µM (inactive) | > 100 µM (inactive) | –
8 | CC1=C(C(=O)Nc2ccccc2)C(c2ccccc2)C(C(=O)Nc2ccccc2)=C(C)N1 | 38.4 µM (inactive) | – | 37.3 µM (inactive) | 26.5 µM (inactive) | 86.1 µM (inactive) | 76.4 µM (inactive) | > 100 µM (inactive) | – | 71.6 µM (inactive) | > 100 µM (inactive) | 43.1 µM (inactive) | 4.74 µM (inactive) | 42.5 µM (inactive) | 16.3 µM (inactive) | – | – | 47.5 µM (inactive) | 29.3 µM (inactive) | 15.4 µM (inactive) | –
